In US9517993B2, “Antagonists of the toll-like receptor 1/2 complex” (THE REGENTS OF THE UNIVERSITY OF COLORADO, a body corporate, priority 2012, dated 2016):

Tests used:
Type in all cases: cell-based
TLR2/6 = target: T1, TLR2/6 (Mus musculus, UniProt Q9EPW9+Q9QUN7); experiment: RAW 264.7 nitric oxide TLR selectivity assay (FSL-1); details: 10 ng/mL FSL-1
T1 construct: RAW 264.7 Cells Nitric Oxide TLR Selectivity Assay; endogenous in cells; host or cells: RAW 264.7
Procedure: (§1) RAW 264.7 (Mouse leukaemic monocyte macrophage cell line) cells were grown in RPMI 1640 medium, supplemented with 10% FBS, penicillin (100 U/mL) and streptomycin ([…]). RAW cells were then planted in 96-well plates at 80,000 cells per well and grown for 24 h in the media descried previously at 37° C. in a 5% CO2 humidified incubator. After 24 h, non-adherent cells and media were removed and replaced with fresh unsupplemented RPMI 1640 medium. The adherent macrophages were treated with Pam3CSK4 (CAS No. 112208-00-1; a synthetic triacylated lipopeptide (LP) that mimics the acylated amino terminus of bacterial LPs) (200 ng/mL) (Invivogen, USA), an agonist of TLR1/2, and then added different concentrates of potential inhibitor. Two rows were only treated with Pam3CSK4 as control. Plates were then incubated for an additional 24 h. Following incubation 100 μL of media was removed and added to flat black 96-well microfluor plates (Thermo Scientific, MA, USA). To each well, 10 μL of 2,3-diaminonaphthalene (0.05 mg/mL in 0.62 M aqueous HCl solution) was added and incubated for 15 min in the dark. The reaction was quenched by addition of 5 μL of a 3 M aqueous NaOH solution and the plate was read on Beckman Coulter DTX880 reader (Beckman Coulter, Calif., USA) with excitation at 365 nm and emission at 450 nm. The nitrite (a stable metabolite of nitric oxide) concentration was determined from a nitrite standard curve. The inhibition rate (%) of NO release was determined using the following formula: Inhibition (%)=[Pam3CSK4(OD450) […]]/[Pam3CSK4 (OD450)−Control (OD450)]×100. The IC50 values for both inhibition and cytotoxicity were determined graphically using software Origin v7.5.
This assay was run in a similar manor as the “In Vitro TLR1/2 Inhibition Assay”. High molecule weight Poly (I:C), LPS (lipopolysaccharide), FSL-1 (Synthetic diacylated lipoprotein—TLR2/TLR6 ligand commercially available from Invivogen, USA), and R848 ([…]) were used to selectively activate TLR3, TLR4, TLR2/6 and TLR7 in place of Pam3CSK4, respectively.

TLR1/2 = target: T2, TLR1/2 (Mus musculus, UniProt Q9EPQ1+Q9QUN7); experiment: In vitro TLR1/2 inhibition assay (nitric oxide, Pam3CSK4-activated RAW 264.7 macrophages); details: for TLR1/2 inhibitory activity (in words, SAR and specificity): RAW 264.7 NO assay, Pam3CSK4; for IC50: RAW 264.7 cells, Pam3CSK4 200 ng/mL, nitric oxide readout, read-out: IC50, inhibition of Pam3CSK4-induced TLR1/2 activation (NO assay)
T2 construct: production of NO in RAW 264.7 macrophage cells; endogenous in cells; host or cells: RAW 264.7
Procedure: To identify novel TLR1/2 complex inhibitors, a cell-based assay was employed to screen the NCI-2 diversity small-molecule library. This 1,363 compound library was chosen from the larger NCI library, which has more than 140,000 compounds, on the basis of availability, purity, and other pharmacological features, such as relative rigidity, number of rotatable bonds and chiral centers, the absence of obvious leaving groups and weakly bounded heteroatoms, etc. Screening was performed in a 96-well plate format using a previously established high-throughput nitric oxide (NO) assay. See e.g. Cheng et al., Small molecule inhibitors of the TLR3/dsRNA complex, J. Am. Chem. Soc. (2011), 133:3764-67, which is herein incorporated by reference in its entirety. Briefly, synthetic triacylated lipoprotein Pam3CSK4 was employed to selectively activate TLR1/2 signaling, resulting in the expression of inducible nitric oxide synthase (iNOS) and the production of NO in RAW 264.7 macrophage cells. NO levels were monitored as an indicator of Pam3CSK4-induced TLR1/2 activation to evaluate the compound's inhibitory activity.
as §1

TLR3 = target: T3, TLR3 (Mus musculus, UniProt Q99MB1); experiment: RAW 264.7 nitric oxide TLR selectivity assay (Poly (I:C)); details: 15 μg/mL Poly (I:C)
T3 construct: RAW 264.7 Cells Nitric Oxide TLR Selectivity Assay; endogenous in cells; host or cells: RAW 264.7
T3 sequence (Q99MB1 26-905): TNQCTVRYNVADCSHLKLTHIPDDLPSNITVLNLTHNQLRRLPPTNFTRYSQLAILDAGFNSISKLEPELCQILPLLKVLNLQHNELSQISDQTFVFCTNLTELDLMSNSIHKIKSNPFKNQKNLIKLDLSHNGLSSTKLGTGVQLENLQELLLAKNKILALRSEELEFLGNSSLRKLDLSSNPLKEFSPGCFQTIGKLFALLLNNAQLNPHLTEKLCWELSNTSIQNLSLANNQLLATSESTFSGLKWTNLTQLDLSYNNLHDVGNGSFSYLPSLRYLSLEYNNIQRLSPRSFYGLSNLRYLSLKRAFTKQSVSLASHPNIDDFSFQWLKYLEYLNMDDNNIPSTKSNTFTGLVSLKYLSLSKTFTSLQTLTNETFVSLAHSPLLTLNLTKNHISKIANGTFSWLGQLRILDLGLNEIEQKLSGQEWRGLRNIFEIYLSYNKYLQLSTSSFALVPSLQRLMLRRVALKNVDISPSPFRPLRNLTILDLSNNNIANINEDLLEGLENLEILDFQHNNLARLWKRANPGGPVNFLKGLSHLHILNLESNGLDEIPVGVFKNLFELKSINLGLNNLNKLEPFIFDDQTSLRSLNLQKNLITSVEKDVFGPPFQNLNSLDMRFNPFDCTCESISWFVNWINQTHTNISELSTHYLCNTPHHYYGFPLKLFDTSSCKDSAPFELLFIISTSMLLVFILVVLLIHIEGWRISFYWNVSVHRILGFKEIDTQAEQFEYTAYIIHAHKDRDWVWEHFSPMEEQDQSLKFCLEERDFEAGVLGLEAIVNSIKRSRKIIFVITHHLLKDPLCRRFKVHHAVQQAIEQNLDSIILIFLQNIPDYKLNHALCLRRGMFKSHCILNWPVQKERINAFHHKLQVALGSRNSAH
Procedure: as §1, with “Plates were then incubated for an additional 24 h. Following incubation 100 μL of media was removed and added to flat black 96-well microfluor plates (Thermo Scientific, MA, USA). To each well, 10 μL of 2,3-diaminonaphthalene (0.05 mg/mL in 0.62 M aqueous HCl solution) was added and incubated for 15 min in the dark.” left out, “v7.5. […]” for “v7.5.”

T1 sequence (Q9QUN7 25-784): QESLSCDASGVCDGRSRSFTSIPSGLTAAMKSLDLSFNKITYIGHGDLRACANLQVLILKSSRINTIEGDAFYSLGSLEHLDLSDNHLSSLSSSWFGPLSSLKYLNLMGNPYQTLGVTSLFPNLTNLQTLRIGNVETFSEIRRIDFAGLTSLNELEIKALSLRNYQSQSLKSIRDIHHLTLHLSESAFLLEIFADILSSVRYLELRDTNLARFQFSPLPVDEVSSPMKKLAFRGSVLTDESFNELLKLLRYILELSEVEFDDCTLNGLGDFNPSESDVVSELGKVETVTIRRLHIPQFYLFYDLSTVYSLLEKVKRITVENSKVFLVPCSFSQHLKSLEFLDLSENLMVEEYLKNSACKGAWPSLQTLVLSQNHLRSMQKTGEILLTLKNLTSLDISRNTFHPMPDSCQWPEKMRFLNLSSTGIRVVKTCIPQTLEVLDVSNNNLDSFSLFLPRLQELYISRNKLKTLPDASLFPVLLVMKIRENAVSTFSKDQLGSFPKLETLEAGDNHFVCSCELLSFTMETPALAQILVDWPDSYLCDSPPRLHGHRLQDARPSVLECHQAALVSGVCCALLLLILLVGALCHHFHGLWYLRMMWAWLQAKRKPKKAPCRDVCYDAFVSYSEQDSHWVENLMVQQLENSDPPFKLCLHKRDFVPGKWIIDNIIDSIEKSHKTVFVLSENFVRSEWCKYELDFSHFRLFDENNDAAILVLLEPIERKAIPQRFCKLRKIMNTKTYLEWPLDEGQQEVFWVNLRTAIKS
T1 sequence (Q9EPW9 28-795): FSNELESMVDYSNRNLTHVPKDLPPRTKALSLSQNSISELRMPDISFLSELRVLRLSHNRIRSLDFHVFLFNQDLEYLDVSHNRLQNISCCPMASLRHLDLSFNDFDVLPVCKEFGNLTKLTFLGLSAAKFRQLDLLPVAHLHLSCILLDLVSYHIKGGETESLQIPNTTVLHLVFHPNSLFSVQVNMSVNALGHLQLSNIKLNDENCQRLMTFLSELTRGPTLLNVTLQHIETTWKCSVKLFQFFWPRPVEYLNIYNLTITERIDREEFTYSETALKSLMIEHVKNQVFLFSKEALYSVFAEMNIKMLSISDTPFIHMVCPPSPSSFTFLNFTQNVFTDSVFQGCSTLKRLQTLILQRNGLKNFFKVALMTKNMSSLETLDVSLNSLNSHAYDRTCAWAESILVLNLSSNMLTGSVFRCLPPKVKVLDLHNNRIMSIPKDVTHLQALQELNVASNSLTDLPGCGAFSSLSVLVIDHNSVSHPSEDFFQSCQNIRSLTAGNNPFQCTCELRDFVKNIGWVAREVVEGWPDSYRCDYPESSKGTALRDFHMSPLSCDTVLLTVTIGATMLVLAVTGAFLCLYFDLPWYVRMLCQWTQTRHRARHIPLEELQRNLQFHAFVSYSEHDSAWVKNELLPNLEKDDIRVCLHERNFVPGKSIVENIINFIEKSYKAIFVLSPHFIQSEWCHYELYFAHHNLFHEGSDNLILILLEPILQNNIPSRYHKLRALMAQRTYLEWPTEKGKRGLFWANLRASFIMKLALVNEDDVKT
T2 sequence (Q9EPQ1 26-795): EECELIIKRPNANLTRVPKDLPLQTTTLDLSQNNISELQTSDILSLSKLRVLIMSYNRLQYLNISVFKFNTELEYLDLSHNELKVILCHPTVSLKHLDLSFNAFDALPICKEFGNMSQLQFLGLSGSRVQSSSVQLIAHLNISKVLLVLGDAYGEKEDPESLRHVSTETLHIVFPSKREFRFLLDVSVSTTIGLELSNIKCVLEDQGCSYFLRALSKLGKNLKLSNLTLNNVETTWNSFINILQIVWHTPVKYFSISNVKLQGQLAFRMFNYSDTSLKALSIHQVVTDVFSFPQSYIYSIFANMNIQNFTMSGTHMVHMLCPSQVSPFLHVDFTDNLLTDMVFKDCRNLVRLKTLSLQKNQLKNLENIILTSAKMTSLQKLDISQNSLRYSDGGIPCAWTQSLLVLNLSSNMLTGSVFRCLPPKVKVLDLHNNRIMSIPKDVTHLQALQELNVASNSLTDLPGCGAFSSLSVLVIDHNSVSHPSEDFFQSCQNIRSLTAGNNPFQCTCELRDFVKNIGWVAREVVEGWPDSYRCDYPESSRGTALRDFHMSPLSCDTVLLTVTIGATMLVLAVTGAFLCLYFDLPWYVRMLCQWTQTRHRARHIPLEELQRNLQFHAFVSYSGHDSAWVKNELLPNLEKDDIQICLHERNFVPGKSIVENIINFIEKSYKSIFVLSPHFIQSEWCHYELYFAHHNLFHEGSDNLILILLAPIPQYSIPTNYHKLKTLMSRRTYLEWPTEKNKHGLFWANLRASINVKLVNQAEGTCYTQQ
T2 sequence (Q9QUN7 25-784): as the sequence (Q9QUN7 25-784) above

inhibition of TLR2/6 signaling (TLR2/6; 3 μM compound) | TLR1/2 inhibitory activity (in words, SAR and specificity) (TLR1/2) | IC50 (TLR1/2) [nM] | inhibition of TLR3 signaling (TLR3; 3 μM compound) | inhibition of TLR2/6 signaling (TLR2/6; 0.5 μM compound) | inhibition of TLR2/6 signaling (TLR2/6; 0.5 μM compound, listed as Compound 17) | TLR1/2 inhibitory activity (in words, SAR and specificity) (TLR1/2; listed as Compound 17) | inhibition of TLR3 signaling (TLR3; 0.5 μM compound) | Structure (SMILES)
no other homologous TLRs | specifically inhibited TLR1/2 signaling | 2450 ± 250 | no other homologous TLRs | – | – | – | – | O=c1c(O)cccc2cc(O)c(O)c(O)c12 [NCI35676, purpurogallin, reference compound]
– | highest inhibitory activity | 580 ± 90 | – | no significant inhibition | without affecting other TLRs | inhibit TLR1/2 signaling | without affecting other TLRs | CCCCCCOC(=O)c1cc(O)c(=O)c2c(O)c(O)c(OC)cc2c1 [compound 17, Hexyl 3,4,6-trihydroxy-2-methoxy-5-oxo-5H-benzo[7]annulene-8-carboxylate]
